The record followed here is PubChem BioAssay AID588671 (Sanford-Burnham Center for Chemical Genomics, 2011).

Broadly, the IC50 is the point on the concentration scale where inhibition reaches its midpoint.

Active and inactive are the calls of the source.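 The calls were made as follows: active = IC50 at or below 20 µM; inactive = the rest.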

This assay has as its target glucose-6-phosphate dehydrogenase-6-phosphogluconolactonase (PfGluPho), Plasmodium falciparum 3D7. Briefly: PfG6PD enzyme inhibitors, SAR follow-up, biochemical, fluorescence intensity, set 2 (AID 588671). The note with it: recombinant PfGluPho, diaphorase-resazurin NADPH fluorescence.
In the case of `CCN1CCCC1CNC(=O)c1ccc2c(c1)NC(=O)c1ccccc1O2` (configuration not stated), the IC50 result is “inactive”.

Consider `CCN1CCC[C@H]1CNC(=O)c1ccc2c(c1)NC(=O)/C(=C/c1ccccc1F)S2`, for which the concentration for half-maximal inhibition (IC50) is 4.79 µM.

Take `CN1CCCC1CCNC(=O)c1ccc2c(c1)NC(=O)/C(=C/c1ccccc1F)S2` (configuration not stated): the IC50 result is “inactive”.

On to `O=C(NCCN1CCOCC1)c1ccc2c(c1)NC(=O)c1ccccc1O2`, for which the IC50 was > 80 µM (inactive).

For the molecule `O=C1COc2ccc(C(=O)NCCN3CCCC3)cc2N1`, the IC50 is > 80 µM (inactive).

Take `CN1CCN(C(=O)c2ccc3c(c2)NC(=O)/C(=C/c2ccccc2Cl)S3)CC1`: the IC50 is > 80 µM (inactive).

Regarding `O=C(NCCN1CCCCC1)c1ccc2c(c1)NC(=O)c1ccccc1O2`, the IC50 entry was “inactive”.

`CCN1CCCC1CNC(=O)c1ccc2c(c1)NC(=O)/C(=C/c1ccccc1C)S2` (configuration not stated): the half-maximal inhibitory concentration (IC50) is 5.93 µM.

Turning to `CCN1CCCC1CNC(=O)c1ccc2c(c1)NC(=O)/C(=C/c1ccccc1OC)S2` (configuration not stated), the IC50 was 9.79 µM.

With `O=C1Nc2cc(C(=O)NCCN3CCCCC3)ccc2S/C1=C\c1ccccc1F`, the IC50 result was “inactive”.

Regarding `O=C1COc2ccc(C(=O)NCCN3CCOCC3)cc2N1`, the IC50 is > 80 µM (inactive).

On to `CCN1CCC[C@@H]1CNC(=O)c1ccc2c(c1)NC(=O)/C(=C/c1ccccc1F)S2`, for which the IC50 is 1.19 µM.

For `CCN1CCCC1CNC(=O)c1ccc2c(c1)NC(=O)CS2` (configuration not stated), the IC50 was > 80 µM (inactive).

With `CCN1CCCC1CNC(=O)c1ccc2c(c1)NC(=O)CO2` (configuration not stated), the IC50 was > 80 µM (inactive).

`CN(C)CCNC(=O)c1ccc2c(c1)NC(=O)c1ccccc1O2`: the IC50 is > 80 µM (inactive).

With `CCN(CC)CCNC(=O)c1ccc2c(c1)NC(=O)c1ccccc1S2`, the IC50 entry was “inactive”.

For the molecule `CCN1CCCC1CNC(=O)c1ccc2c(c1)NC(=O)/C(=C/c1cccc3ccccc13)S2` (configuration not stated), the half-maximal inhibitory concentration (IC50) was 4.28 µM.

Consider `CN(C)CCNC(=O)c1ccc2c(c1)NC(=O)CO2`, for which the IC50 was > 80 µM (inactive).

`O=C1Nc2cc(C(=O)NCCN3CCOCC3)ccc2S/C1=C\c1ccccc1F`: the IC50 was > 80 µM (inactive).

Take `CCN(CC)CCNC(=O)c1ccc2c(c1)NC(=O)c1ccccc1O2`: the IC50 entry is “inactive”.

Consider `O=C(NCCN1CCCC1)c1ccc2c(c1)NC(=O)c1ccccc1S2`, for which the IC50 result was “inactive”.

As for `O=C1Nc2cc(C(=O)NCc3ccccc3)ccc2S/C1=C\c1ccccc1F`, the IC50 is > 80 µM (inactive).

For the molecule `CCN(CC)CCNC(=O)c1ccc2c(c1)NC(=O)CO2`, the IC50 is > 80 µM (inactive).

In the case of `O=C1COc2ccc(C(=O)NCCN3CCCCC3)cc2N1`, the IC50 was > 80 µM (inactive).

Take `CCN1CCCC1CNC(=O)c1ccc2c(c1)NC(=O)/C(=C/c1ccccc1F)S2` (configuration not stated): the IC50 was 1.71 µM.

Consider `CCN1CCCC1CNC(=O)c1ccc2c(c1)NC(=O)c1ccccc1S2` (configuration not stated), for which the half-inhibitory concentration (IC50) was 9.89 µM.

For `O=C(NCCN1CCCC1)c1ccc2c(c1)NC(=O)c1ccccc1O2`, the IC50 result was “inactive”.
